# Laboratory results published in patent publication US7872035B2, “Angiotensin II antagonists” (AstraZeneca AB, priority 2001, dated 2011).
# Experiments:
# [1] = tested on: patients suffering from migraine; assay: Pilot double-blind placebo-controlled crossover trial, prophylactic effect in migraine; assay type: in vivo, human
# Protocol: A study in which the effects of the angiotensin II type 1 receptor antagonist candesartan cilexetil (Atacand®) is compared to that of placebo, was carried out to explore the feasability of giving candesartan cilexetil to patients suffering from, or susceptible to, vascular headache conditions, and especially migraine.
# The pilot study was a double-blind placebo-controlled crossover trial on the prophylactic effect of the AT II antagonist candesartan cilexetil performed in patients suffering from migraine.
# The study provides preliminary data on the feasibility of administering candesartan cilexetil for preventing migraine. It also provides preliminary data on useful concentrations of candesartan cilexetil in this use.
# [2] = tested on: patients having mild-to-moderate hypertension; settings: hypertensive patients, versus placebo; cited from earlier work
compound,measurement,setting,value
CCOc1nc2cccc(C(=O)OC(C)OC(=O)OC3CCCCC3)c2n1Cc1ccc(-c2ccccc2-c2nn[nH]n2)cc1 (stereo not drawn) [candesartan cilexetil],relief of symptoms (migraine),"[1]; one patient with a medical history of migraine, treating themself with Atacand 16 mg, relief subjectively noted",significant relief of symptoms
same,relief of symptoms (migraine),"[1]; the other patient with a medical history of migraine, relief subjectively noted after treatment with Atacand",significant relief of symptoms
CCCCC1=NC2(CCCC2)C(=O)N1Cc1ccc(-c2ccccc2-c2nnn[nH]2)cc1 [irbesartan],incidence of headache,[2],significant reduction
